Measurements taken from ChEMBL document CHEMBL6087485, “Novel 3-Sulfonamide Dual-Tail Pyrrol-2-one Bridged Molecules as Potent Human Carbonic Anhydrase Isoform Inhibitors: Design, Synthesis, Molecular Modeling Investigation, and Anticancer Activity in MeWo, SK-BR-3, and MG-63 Cell Lines” (J Med Chem, 2025).
Active and inactive are the calls of the source. The calls are words filed in the database; no cut-off is given here.

Assays:
Carbonic anhydrase 9 = Carbonic anhydrase 9 (Homo sapiens, UniProt Q16790); assay: Inhibition of recombinant human CA-IX incubated for 15 mins by phenol red dye based stopped-flow CO2 hydration assay
MeWo [1] = assay: Cytotoxicity against human MeWo cells at 10 uM incubated for 24 hrs by MTS assay; assay type: functional, cell-based
SK-BR-3 [2] = assay: Cytotoxicity against human SK-BR-3 cells at 10 uM incubated for 24 hrs by MTS assay; assay type: functional, cell-based
MG-63 [3] = assay: Cytotoxicity against human MG-63 cells at 10 uM incubated for 24 hrs by MTS assay; assay type: functional, cell-based
[4] = Cytotoxicity against human HGF cells at 10 uM incubated for 24 hrs by MTS assay; assay type: toxicity, cell-based
[5] = Cytotoxicity against human HGF cells assessed as inhibition of cell viability incubated for 24 hrs by MTS assay; assay type: toxicity, cell-based
MeWo [6] = assay: Cytotoxicity against human MeWo cells assessed as inhibition of cell viability incubated for 24 hrs by MTS assay; assay type: functional, cell-based
[7] = Synergistic cytotoxicity against human HGF cells assessed as inhibition of cell viability incubated for 24 hrs in presence of DOX by MTS assay; assay type: toxicity, cell-based
MeWo [8] = assay: Synergistic cytotoxicity against human MeWo cells assessed as inhibition of cell viability incubated for 24 hrs in presence of DOX by MTS assay; assay type: functional, cell-based
MeWo [9] = assay: Synergistic cytotoxicity against human MeWo cells assessed as inhibition of cell viability at 10 uM incubated for 24 hrs in presence of DOX by MTS assay; assay type: functional, cell-based
[10] = Synergistic cytotoxicity against human HGF cells assessed as cell viability at 10 uM incubated for 24 hrs in presence of DOX by MTS assay relative to control; assay type: toxicity, cell-based; details: read-out: Activity
MeWo [11] = assay: Cytotoxicity against human MeWo cells at 50 uM incubated for 24 hrs by MTS assay; assay type: functional, cell-based
SK-BR-3 [12] = assay: Cytotoxicity against human SK-BR-3 cells at 50 uM incubated for 24 hrs by MTS assay; assay type: functional, cell-based
MG-63 [13] = assay: Cytotoxicity against human MG-63 cells at 50 uM incubated for 24 hrs by MTS assay; assay type: functional, cell-based
[14] = Cytotoxicity against human HGF cells at 50 uM incubated for 24 hrs by MTS assay; assay type: toxicity, cell-based

Ki (Carbonic anhydrase 9) [nM] | Structure (SMILES) | Activity (MeWo [1]) | Activity (SK-BR-3 [2]) | Activity (MG-63 [3]) | Activity [4] | other results
95.1 | COc1ccc(C2C=C(Nc3cccc(S(N)(=O)=O)c3)C(=O)N2c2cccc(S(N)(=O)=O)c2)cc1O (stereo unspecified) | inactive | inactive | inactive | Non-toxic | 
7 | COc1cccc(C2C=C(Nc3cccc(S(N)(=O)=O)c3)C(=O)N2c2cccc(S(N)(=O)=O)c2)c1O (stereo unspecified) | inactive | inactive | inactive | Non-toxic | IC50 at 24 h [5]: 70700 nM; IC50 (MeWo [6]): 63300 nM; IC50 at 24 h [7]: 27500 nM; IC50 (MeWo [8]): 11300 nM; Activity (MeWo [9]): Active; viability at 24 h, 10 µM [10]: > 70%
386 | NS(=O)(=O)c1cccc(NC2=CC(c3ccc(Br)cc3)N(c3cccc(S(N)(=O)=O)c3)C2=O)c1 (stereo unspecified) |  |  |  |  | 
87.2 | COc1ccc(C2C=C(Nc3cccc(S(N)(=O)=O)c3)C(=O)N2c2cccc(S(N)(=O)=O)c2)cc1OC (stereo unspecified) |  |  |  |  | 
369 | COc1cc(C2C=C(Nc3cccc(S(N)(=O)=O)c3)C(=O)N2c2cccc(S(N)(=O)=O)c2)ccc1O (stereo unspecified) |  |  |  |  | 
30.3 | COc1cc(C2C=C(Nc3cccc(S(N)(=O)=O)c3)C(=O)N2c2cccc(S(N)(=O)=O)c2)cc(OC)c1O (stereo unspecified) | inactive | inactive | inactive | Non-toxic | 
93.8 | COc1ccccc1C1C=C(Nc2cccc(S(N)(=O)=O)c2)C(=O)N1c1cccc(S(N)(=O)=O)c1 (stereo unspecified) |  |  |  |  | 
52.4 | COc1ccc(O)c(C2C=C(Nc3cccc(S(N)(=O)=O)c3)C(=O)N2c2cccc(S(N)(=O)=O)c2)c1 (stereo unspecified) |  |  |  |  | 
345 | NS(=O)(=O)c1cccc(NC2=CC(c3ccccc3O)N(c3cccc(S(N)(=O)=O)c3)C2=O)c1 (stereo unspecified) | inactive | inactive | inactive | Non-toxic | Activity (MeWo [11]): Active; Activity [14]: Non-toxic; IC50 at 24 h [5]: 117000 nM; IC50 (MeWo [6]): 94300 nM; IC50 at 24 h [7]: 36400 nM; IC50 (MeWo [8]): 12300 nM; Activity (MeWo [9]): Active; viability at 24 h, 10 µM [10]: > 70%

The remaining lines, values behind:

Structure (SMILES) | Ki (Carbonic anhydrase 9) [nM] | Activity (MeWo [1]) | Activity (SK-BR-3 [2]) | Activity (MG-63 [3]) | Activity [4] | other results
NS(=O)(=O)c1cccc(NC2=CC(c3ccco3)N(c3cccc(S(N)(=O)=O)c3)C2=O)c1 (stereo unspecified) | 79.9 |  |  |  |  | 
NS(=O)(=O)c1cccc(NC2=CC(c3ccc(C(F)(F)F)cc3)N(c3cccc(S(N)(=O)=O)c3)C2=O)c1 (stereo unspecified) | 831 |  |  |  |  | 
NS(=O)(=O)c1cccc(NC2=CC(c3ccc(F)cc3)N(c3cccc(S(N)(=O)=O)c3)C2=O)c1 (stereo unspecified) | 50.1 | inactive | inactive | inactive | Non-toxic | IC50 at 24 h [5]: 85800 nM; IC50 (MeWo [6]): 68600 nM; IC50 at 24 h [7]: 19600 nM; IC50 (MeWo [8]): 11200 nM; Activity (MeWo [9]): Active; viability at 24 h, 10 µM [10]: > 70%
NS(=O)(=O)c1cccc(NC2=CC(c3ccc4c(c3)OCO4)N(c3cccc(S(N)(=O)=O)c3)C2=O)c1 (stereo unspecified) | 443 |  |  |  |  | 
NS(=O)(=O)c1cccc(NC2=CC(c3cc(C(F)(F)F)cc(C(F)(F)F)c3)N(c3cccc(S(N)(=O)=O)c3)C2=O)c1 (stereo unspecified) | 539 |  |  |  |  | 
N#Cc1ccc(C2C=C(Nc3cccc(S(N)(=O)=O)c3)C(=O)N2c2cccc(S(N)(=O)=O)c2)cc1 (stereo unspecified) | 345 |  |  |  |  | 
CC(C)c1ccc(C2C=C(Nc3cccc(S(N)(=O)=O)c3)C(=O)N2c2cccc(S(N)(=O)=O)c2)cc1 (stereo unspecified) | 615 |  |  |  |  | 
CCCCc1ccc(C2C=C(Nc3cccc(S(N)(=O)=O)c3)C(=O)N2c2cccc(S(N)(=O)=O)c2)cc1 (stereo unspecified) | 564 | inactive | inactive | inactive | Non-toxic | Activity (MeWo [11]): Active; Activity (SK-BR-3 [12]): Active; Activity (MG-63 [13]): Active; Activity [14]: Toxic
NS(=O)(=O)c1cccc(NC2=CC(c3ccccc3)N(c3cccc(S(N)(=O)=O)c3)C2=O)c1 (stereo unspecified) | 58 |  |  |  |  | 
